Where a SMILES comes first, the peptide text is derived from it. [ ]: non-standard residue; d: D form. Tyr(3-I) = N[C@@H](Cc1ccc(O)c(I)c1)C(=O)O

One series relates to BxPC3 cells. Type of series: binding, human. The note with it: 24 h. The procedure:
(§1) Three hundred thousand BxPC3, MCF7, PDGFRβ-tr-HEK, CaIX-tr-HEK, or HEK293wt cells were cultivated in six-well plates at 37°C for 24 h. Cells were blocked with RPMI 1640 containing 1% milk powder and the medium was replaced with 1 ml fresh medium (without FCS) containing 0.5–1.5 × 10^6 cpm ^125I-labeled peptide. After incubation at 37°C for various time periods (10 min to 6 h), the medium was removed and the cells were washed with PBS. Subsequently, cell lysis was performed with 0.5 ml NaOH 0.3 M and the bound radioactivity was measured with a γ-counter and calculated as percentage applied dose per 10^6 cells. Specific binding was determined through co-incubation of the radioligand with the unlabeled PDGFR-P1 peptide at various concentrations (10^−4 to 10^−10 M). A dodecapeptide identified with phage display by panning against the extracellular domain of human carbonic anhydrase IX (CaIX-P1) as well as a derivative of a dodecapeptide identified with phage display on prostate carcinoma cells (DUP-1–9) were used as negative control competitors.

Series [1] addresses T1, extracellular domain of human PDGFRβ (Homo sapiens, UniProt P09619).
T1 construct: The extracellular domain of PDGFRβ was recombinantly synthesized using the Flp-In system; Fc (Fcγ from pSEC-EGP-2-Fcγ vector) (C); made in house; host or cells: Flp-In-293 human embryonic kidney cells
Type of series: binding. The settings on record: pH 7.4. The procedure: Binding of ^125I-labeled PDGFR-P1 was investigated on immobilized extracellular domain of human PDGFRβ, EGFR, and FGFR. The target proteins were incubated at a concentration of 25 nM in 96-well Maxisorp^TM plates (Nunc GmbH & Co. KG, Germany) for 24 h and the plates were washed thrice with 100 μl PBS pH 7.4. ^125I-labeled PDGFR-P1 was incubated with the target in 100 μl PBS pH 7.4 for 60 min. The unbound activity was removed by washing with 300 μl ice-cold PBS pH 7.4. Bound radioligand was determined through degradation with 100 μl NaOH 0.3 M and radioactivity measurement. Radioligand binding was calculated as percentage applied dose.

The nature of another series: human serum. The settings on record: 37°C, up to 20 h.
The next series concerns PDGFR-tr-HEK cells. Briefly: In vitro binding kinetics on PDGFRβ-transfected HEK293 cells. Also on record: species or system human. The note with it: kinetic studies, vs HEK293wt and CaIX-tr-HEK cells, 37°C, serum-free medium, p < 0.05. The procedure:
as §1

Another series is described as follows: Stability in human serum. The settings on record: 37°C, HPLC analysis. Type of series: in vitro ADME. The procedure:
The stability of PDGFR-P1 was investigated in human serum. ^125I-labeled peptide was incubated at 37°C in human serum. At time points varying from 5 min to 20 h, aliquots were taken, mixed with equal volume acetonitrile, to precipitate serum proteins and centrifuged for 5 min at 13,000 rpm. Serum degradation products were determined by HPLC analysis of the supernatant.

Another series is described as follows: in vivo. The arrangement: species or system Balb/c nu/nu mice. The settings on record: female, Balb/c nu/nu, mouse, iv, 1 MBq, total radioactivity; for tissue to tissue ratio at 0.25 h: Tumor-to-organ ratio. As to the method:
(§2) Organ distribution studies were carried out in 9-week-old female Balb/c nu/nu mice (Charles River WIGA), carrying subcutaneously transplanted human pancreatic cancer BxPC3 tumors. Tumor implantation was performed through injection of a cell suspension (4 × 10^6 cells in OPTI-MEM) (Gibco, Invitrogen Life Technologies) into the mouse trunk. After the tumors were grown to a size of approximately 1.0 cm^3, 1 MBq of ^131I-labeled PDGFR-P1 was injected into the tail vein, and at 15 min p.i. the animals were euthanized. Tumor, blood, and healthy tissues were removed, weighed, and measured with a γ-counter (LB […]; Berthold Technologies). Organ uptake calculation was performed as percentage injected dose per gram tissue (% ID/g). To avoid bias due to blood background radioactivity, uptake in blood-free organs was determined with perfusion experiments. Within these experiments, blood was removed through a catheter in the ascending aorta of the anesthesized animal and perfusion with approximately 25 ml 0.9% NaCl was performed via a cut in the animal liver. After perfusion, samples of tumor and organs were removed and measured as described. All animal experiments were carried out in conformity with the German and European laws for animal protection.

A further series deals with BxPC3 tumors. Briefly: in vivo. The arrangement: species or system Balb/c nu/nu mice. The note with it: female, Balb/c nu/nu, mouse, iv, 1 MBq, 0.25 h. The procedure:
as §2

T1 sequence (P09619 33-532 limits assumed): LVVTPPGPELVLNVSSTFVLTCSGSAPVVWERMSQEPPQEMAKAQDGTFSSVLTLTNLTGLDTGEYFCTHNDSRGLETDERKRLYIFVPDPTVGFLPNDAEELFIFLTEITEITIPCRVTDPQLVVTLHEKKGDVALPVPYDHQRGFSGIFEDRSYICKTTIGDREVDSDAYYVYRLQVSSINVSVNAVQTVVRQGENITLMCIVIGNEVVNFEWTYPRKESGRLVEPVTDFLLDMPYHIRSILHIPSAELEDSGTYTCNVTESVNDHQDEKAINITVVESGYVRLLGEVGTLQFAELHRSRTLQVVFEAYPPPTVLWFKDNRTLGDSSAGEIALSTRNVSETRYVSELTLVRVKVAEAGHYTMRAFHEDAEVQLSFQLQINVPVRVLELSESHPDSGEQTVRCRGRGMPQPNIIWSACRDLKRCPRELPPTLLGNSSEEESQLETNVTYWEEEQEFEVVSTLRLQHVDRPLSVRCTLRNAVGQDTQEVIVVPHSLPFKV

The IC50 is the concentration needed to halve the response being measured. `CC[C@H](C)[C@H](N)C(=O)N1CCC[C@H]1C(=O)N[C@@H](CC(C)C)C(=O)N1CCC[C@H]1C(=O)N1CCC[C@H]1C(=O)N1CCC[C@H]1C(=O)N[C@@H](CO)C(=O)N[C@@H](CCCNC(=N)N)C(=O)N1CCC[C@H]1C(=O)N[C@@H](Cc1ccccc1)C(=O)N[C@@H](Cc1ccccc1)C(=O)N[C@@H](CCCCN)C(=O)N[C@@H](Cc1ccc(O)cc1)C(N)=O` [PDGFR-P1] (H-IPLPPPSRPFFKY-NH2) displayed a half-inhibitory concentration (IC50) in the series with BxPC3 cells of 1.4 µM. In addition, the “Binding of the radioligand (percentage applied dose)” value in series [1] is “about 18%”.
On to IPLPPPSRPFFKY-NH2, for which, in the series “human serum”, the cleaved bond entry is reported as “K-Y” and the fragment found result is “Y-OH”.
The term half-life denotes the time needed for the level to fall by half in the phase considered. High values mean slow decline, low ones rapid decline. As to `CC[C@H](C)[C@H](N)C(=O)N1CCC[C@H]1C(=O)N[C@@H](CC(C)C)C(=O)N1CCC[C@H]1C(=O)N1CCC[C@H]1C(=O)N1CCC[C@H]1C(=O)N[C@@H](CO)C(=O)N[C@@H](CCCNC(=N)N)C(=O)N1CCC[C@H]1C(=O)N[C@@H](Cc1ccccc1)C(=O)N[C@@H](Cc1ccccc1)C(=O)N[C@@H](CCCCN)C(=O)N[C@@H](Cc1ccc(O)c(I)c1)C(N)=O` [^125I-labeled PDGFR-P1] (H-IPLPPPSRPFFK[Tyr(3-I)]-NH2; N-terminus assumed), in the series on PDGFR-tr-HEK cells, the “Binding on PDGFR-tr-HEK cells compared to negative controls” value was “significantly increased binding”. For the same compound, the Degradation product analysis entry in “Stability in human serum” is recorded as “cleavage of the C-terminal tyrosine over time”. The compound also yielded a half-life in “Stability in human serum” (aliquots 5 min to 20 h, acetonitrile precipitation) of 4 min.
What is called tissue uptake is the share of the injected amount in each gram of the tissue. Regarding `CC[C@H](C)[C@H](N)C(=O)N1CCC[C@H]1C(=O)N[C@@H](CC(C)C)C(=O)N1CCC[C@H]1C(=O)N1CCC[C@H]1C(=O)N1CCC[C@H]1C(=O)N[C@@H](CO)C(=O)N[C@@H](CCCNC(=N)N)C(=O)N1CCC[C@H]1C(=O)N[C@@H](Cc1ccccc1)C(=O)N[C@@H](Cc1ccccc1)C(=O)N[C@@H](CCCCN)C(=O)N[C@@H](Cc1ccc(O)c(I)c1)C(N)=O` [^131I-labeled PDGFR-P1] (H-IPLPPPSRPFFK[Tyr(3-I)]-NH2; N-terminus assumed), the tissue uptake at 0.25 h in “in vivo” (Activity concentration in blood) was found to be 5.4 %ID/g; in the series “in vivo” (Activity concentration in kidney), 10.6 %ID/g; in the series “in vivo” (Tumor accumulation), 3.2 %ID/g. Moreover, the tissue to tissue ratio at 0.25 h in the series “in vivo” (Brain) amounted to 8.7; in the series “in vivo” (Intestinum), 1.43; in the series “in vivo” (Kidney), 0.299; in “in vivo” (Muscle), 2.15; in the series “in vivo” (Spleen) it was 1.42. Besides, in the series with BxPC3 tumors, the “Tumor-to-organ ratio, Brain” value is on record as 9.083. The “Tumor-to-organ ratio, Intestinum” value with BxPC3 tumors came to 1.321. Moreover, the “Tumor-to-organ ratio, Kidney” value in the series with BxPC3 tumors is 0.379. In addition, the “Tumor-to-organ ratio, Muscle” value in the series on BxPC3 tumors came out at 2.530. For the same compound, the “Tumor-to-organ ratio, Spleen” value in the series with BxPC3 tumors turned out to be 1.601.

The values above are taken from publication PMC3591530 (Molecular Imaging and Biology, 2012).
